Reference: ChEMBL document CHEMBL1201862, “PubChem BioAssay data set” (2004)
Calls of active or inactive are those of the source.

Tests used:
[1] = blockers of HIV-1 ZM109 envelope-driven cell-cell fusion – HeLa effector, CEM target cells, luciferase, cherry-pick, dose response (AID 652058); assay type: functional, cell-based;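 note: luciferase signal from HIV-1 Env mediated cell-cell fusion of effector and target cells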
[2] = blockers of HIV-1 envelope-mediated cell-cell fusion – cherry-pick, dose response (AID 652057); assay type: functional, cell-based
[3] = HIV-1 AD8 envelope cell-cell fusion blockers – cherry-pick, dose response (AID 652062); assay type: functional, cell-based;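 note: luciferase signal from cell-cell fusion driven by HIV-1 clade B AD8 Env; potency is for inhibitors of fusion seen as a drop in luminescence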
[4] = off-target signal loss in HeLa-CEM21 co-culture – HeLa F-luc CTL cells, cherry-picked, counter-screen for HIV-1 Env fusion inhibitor project, dose response (AID 652040); assay type: functional, cell-based;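 note: potency for signal decrease marking cytotoxic or nonspecific inhibition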
[5] = target: T1, Rac GTPase-activating protein 1 (Homo sapiens, UniProt Q9H0H5); test: blockers of MgcRacGAP-driven Rac1 GTP hydrolysis – biochemical, ADP Hunter fluorescence, primary and confirmatory, confirmation (AID 624330); assay type: functional
T1 sequence (Q9H0H5 whole entry): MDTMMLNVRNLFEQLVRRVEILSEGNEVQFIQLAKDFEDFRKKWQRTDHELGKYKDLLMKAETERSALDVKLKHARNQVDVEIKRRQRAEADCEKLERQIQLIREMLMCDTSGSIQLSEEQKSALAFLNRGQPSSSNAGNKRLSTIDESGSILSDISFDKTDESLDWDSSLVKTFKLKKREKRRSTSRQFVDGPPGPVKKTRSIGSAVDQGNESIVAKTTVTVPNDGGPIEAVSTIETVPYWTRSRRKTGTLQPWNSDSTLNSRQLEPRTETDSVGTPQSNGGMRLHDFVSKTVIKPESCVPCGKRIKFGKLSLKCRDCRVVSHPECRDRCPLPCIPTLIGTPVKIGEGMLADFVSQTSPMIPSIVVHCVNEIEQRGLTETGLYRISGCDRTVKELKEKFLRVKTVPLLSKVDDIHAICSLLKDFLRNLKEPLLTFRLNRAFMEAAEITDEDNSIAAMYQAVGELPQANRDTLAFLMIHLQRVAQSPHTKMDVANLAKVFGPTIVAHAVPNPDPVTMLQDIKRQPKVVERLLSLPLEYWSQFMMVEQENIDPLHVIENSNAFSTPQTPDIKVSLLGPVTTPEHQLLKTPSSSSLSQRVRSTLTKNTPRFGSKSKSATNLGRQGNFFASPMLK

[6] = viability loss in HeLa cells – cytotoxicity control for MgcRacGAP inhibitor project, dose response (AID 624300); assay type: functional
[7] = intracellular Trypanosoma cruzi inhibitors in host cells – cell-based, plate reader, cherry-pick samples, set 3, dose response (AID 651818); assay type: functional;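 note: compounds incubated with infected cells for about four days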
[8] = target: T2, DNA repair protein RAD52 homolog (Homo sapiens, UniProt P43351); assay type: functional, biochemical
T2 sequence (P43351 whole entry): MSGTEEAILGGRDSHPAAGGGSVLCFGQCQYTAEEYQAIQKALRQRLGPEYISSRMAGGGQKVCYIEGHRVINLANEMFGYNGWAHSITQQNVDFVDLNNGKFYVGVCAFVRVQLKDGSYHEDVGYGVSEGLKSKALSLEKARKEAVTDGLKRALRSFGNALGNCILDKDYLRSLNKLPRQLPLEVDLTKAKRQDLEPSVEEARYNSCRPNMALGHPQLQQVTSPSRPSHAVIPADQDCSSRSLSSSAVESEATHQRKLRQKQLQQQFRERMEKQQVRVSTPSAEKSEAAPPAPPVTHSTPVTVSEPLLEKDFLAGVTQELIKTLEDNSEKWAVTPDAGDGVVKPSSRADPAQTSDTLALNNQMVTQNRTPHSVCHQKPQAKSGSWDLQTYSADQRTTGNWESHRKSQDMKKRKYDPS

[9] = target: T3, DNA repair and recombination protein RAD54-like (Homo sapiens, UniProt Q92698); test: RAD54 Holliday junction migration blockers – biochemical, fluorescence, cherry-picked samples, dose series, confirmation (AID 651657); assay type: functional
T3 sequence (Q92698 whole entry): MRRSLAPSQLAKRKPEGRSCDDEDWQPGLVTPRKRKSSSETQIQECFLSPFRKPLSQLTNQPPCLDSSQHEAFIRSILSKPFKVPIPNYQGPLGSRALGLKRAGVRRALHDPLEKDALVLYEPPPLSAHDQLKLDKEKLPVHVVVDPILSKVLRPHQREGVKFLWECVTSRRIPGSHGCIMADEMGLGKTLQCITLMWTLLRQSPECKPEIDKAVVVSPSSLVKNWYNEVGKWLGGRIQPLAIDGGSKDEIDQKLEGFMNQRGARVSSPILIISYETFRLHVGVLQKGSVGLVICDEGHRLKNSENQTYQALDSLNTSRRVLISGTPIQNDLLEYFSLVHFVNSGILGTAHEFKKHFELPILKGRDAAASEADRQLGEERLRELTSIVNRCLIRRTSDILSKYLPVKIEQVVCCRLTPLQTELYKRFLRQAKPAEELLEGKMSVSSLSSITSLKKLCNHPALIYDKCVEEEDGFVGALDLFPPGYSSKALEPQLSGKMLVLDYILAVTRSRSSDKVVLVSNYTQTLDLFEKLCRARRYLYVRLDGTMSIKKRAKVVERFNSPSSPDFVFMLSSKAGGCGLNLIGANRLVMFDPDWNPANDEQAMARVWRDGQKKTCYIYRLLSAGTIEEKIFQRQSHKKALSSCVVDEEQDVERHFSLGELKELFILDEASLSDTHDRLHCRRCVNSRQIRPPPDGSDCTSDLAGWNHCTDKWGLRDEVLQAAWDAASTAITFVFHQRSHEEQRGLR

[10] = target: FAD-linked sulfhydryl oxidase ALR (Homo sapiens, UniProt P55789); test: ALR-catalysed DTT oxidation blockers – biochemical, H2O2 detection, luminescence, cherry-pick, dose response (AID 493248)
[11] = target: Heat shock protein HSP 90-alpha (Homo sapiens, UniProt P07900); assay type: functional, organism-based
[12] = viability loss in HEK293 cells – cell-based, plate reader, cherry-picked samples, cytotoxicity control, dose response (AID 743446); assay type: functional
[13] = toxicity toward HepG2 liver cells – cell-based, plate reader, cherry-pick, antagonist series, cytotoxicity control, dose response (AID 743416); assay type: functional
[14] = blockers of bursicon-stimulated LGR2 cAMP reporter – cell-based, HEK293, CRE-luciferase reporter, cherry pick, set 2, dose response (AID 743343); assay type: functional;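 note: transfected cells were stimulated with diluted bursicon conditioned medium after compound addition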
[15] = blockade of melanocortin 4 receptor signaling – cell-based, plate reader, cherry pick, counter-screen for LGR2 antagonist project, dose response (AID 743444); assay type: functional;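 note: transfected HEK 293 cells stimulated with alpha-MSH peptide; potency of inhibitors of the alpha-MSH evoked signal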
[16] = A549 cell cytotoxicity, dose response, cytotoxicity control, plate reader, cherry-pick, antagonist series (AID 743412); assay type: functional, cell-based
[17] = target: T4, Long-chain-fatty-acid--AMP ligase FadD28 (Mycobacterium tuberculosis, UniProt P9WQ59); test: Fluorescence polarization aasay to screen for inhibitors that compete for the binding of FadD28 to a bisubstrate Measured in Biochemical System Using Plate Reader - 2147-01_Inhibitor_Dose_CherryPick_Activity.; assay type: functional, Mycobacterium tuberculosis H37Rv
T4 sequence (P9WQ59 whole entry): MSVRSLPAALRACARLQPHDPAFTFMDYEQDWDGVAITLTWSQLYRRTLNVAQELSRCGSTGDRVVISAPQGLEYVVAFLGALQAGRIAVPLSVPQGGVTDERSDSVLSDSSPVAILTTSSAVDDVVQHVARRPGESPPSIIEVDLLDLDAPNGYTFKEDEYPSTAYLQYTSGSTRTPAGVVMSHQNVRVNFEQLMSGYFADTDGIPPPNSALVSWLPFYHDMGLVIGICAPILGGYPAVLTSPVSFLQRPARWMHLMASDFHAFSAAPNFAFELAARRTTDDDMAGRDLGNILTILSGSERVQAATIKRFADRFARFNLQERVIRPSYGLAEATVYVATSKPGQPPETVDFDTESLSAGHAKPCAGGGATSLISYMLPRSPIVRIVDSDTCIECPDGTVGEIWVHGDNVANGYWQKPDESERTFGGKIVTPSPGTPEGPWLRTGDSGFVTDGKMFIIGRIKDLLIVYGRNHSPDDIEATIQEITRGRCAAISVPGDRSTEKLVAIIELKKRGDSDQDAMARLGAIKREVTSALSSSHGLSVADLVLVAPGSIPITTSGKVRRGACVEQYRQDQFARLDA

FAD-linked sulfhydryl oxidase ALR, sequence (P55789 whole entry): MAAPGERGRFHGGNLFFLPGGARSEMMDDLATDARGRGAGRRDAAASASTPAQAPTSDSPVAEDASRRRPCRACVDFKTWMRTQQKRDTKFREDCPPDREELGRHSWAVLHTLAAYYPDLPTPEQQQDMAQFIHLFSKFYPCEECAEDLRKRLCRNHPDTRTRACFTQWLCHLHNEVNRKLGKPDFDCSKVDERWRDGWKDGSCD

In the case of `C[C@@H]1CNC(=O)c2c(C(=O)N(C)Cc3ccccc3)ncn21`, the AC50 [1] is reported as 4.8 µM (active), the AC50 [2] is reported as 1.86 µM (active) and the AC50 [3] is reported as 3.68 µM (active). For the same compound, the AC50 [4] was 3.39 µM (active).

With `CN(C)c1ccc2c(c1)C(=NO)c1ccccc1-2` the IC50 [5] was 33.5 µM (active) and the CC50 [6] was 100 µM (active).

For `C[N+](C)(C)CCC(=O)N1C/C(=C/c2ccccc2)C(=O)/C(=C\c2ccccc2)C1`, the IC50 [5] was 128 µM (active) and the CC50 [6] was 100 µM (active).

With `C[C@H]1CN([C@@H](C)CO)C(=O)Cc2cc(NC(=O)Cc3ccccc3)ccc2O[C@H]1CN(C)Cc1ccc(C(F)(F)F)cc1` the AC50 [7] was 2.61 µM (active).

In the case of `CN1CCCN(c2cc(-c3ccc4ccccc4c3)nc3ccnn23)CC1`, the AC50 [8] is reported as 1.57 µM (active) and the AC50 [9] is reported as 8.49 µM (active).

In the case of `COc1ccc(-c2c[nH]nc2N)c(OC)c1`, the AC50 [1] is reported as 32.5 µM (active), the AC50 [2] is reported as 3.7 µM (active) and the AC50 [3] is reported as 4.98 µM (active). The AC50 [4] was 20 µM (active) and the AC50 [10] was 0.411 µM (active).

For `CCCCCCC(=O)N(O)C1CC(=O)N(c2ccc(F)cc2)C1=O` (centres undefined), the AC50 [11] was 2.58 µM (active).

In the case of `C[C@H]1CN([C@@H](C)CO)C(=O)Cc2cc(NC(=O)Nc3ccc(C(F)(F)F)cc3)ccc2O[C@H]1CN(C)Cc1ccncc1`, the AC50 [7] is reported as 5.53 µM (active).

In the case of `C[C@@H]1CN([C@H](C)CO)C(=O)Cc2cc(NC(=O)Nc3ccc(F)cc3)ccc2O[C@H]1CN(C)Cc1ccc(-c2ccccc2)cc1`, the AC50 [7] is reported as 3.36 µM (active).

In the case of `Cc1ccc(S(=O)(=O)N(C)C[C@H]2Oc3ccc(NS(=O)(=O)c4ccccc4)cc3CC(=O)N([C@H](C)CO)C[C@H]2C)cc1`, the AC50 [7] is reported as 2.56 µM (active).

With `C=CCN(C(=O)C1CC(=O)N(C2CCCC2)C1)c1nc(-c2ccc(S(C)(=O)=O)cc2)cs1` (centres undefined) the AC50 [12] was 30.1 µM (active), the AC50 [13] was > 52 µM (inactive) and the AC50 [14] was 25.8 µM (active). For the same compound, the AC50 [15] was 41.5 µM (active) and the AC50 [16] was 36.7 µM (active).

With `O=S(=O)(c1ccccc1Cl)N1CCCC1c1nc(-c2ccc(Cl)cc2)no1` (centres undefined) the AC50 [2] was 1.99 µM (active), the AC50 [3] was 14.8 µM (active) and the AC50 [4] was 60.9 µM (active).

With `Cc1ccc(S(=O)(=O)c2cc(Nc3ccccc3)ccc2O)cc1` the IC50 [5] was 48.9 µM (active) and the CC50 [6] was 100 µM (active).

In the case of `C[C@@H]1CN([C@H](C)CO)C(=O)Cc2cc(NC(=O)Nc3ccc4c(c3)OCO4)ccc2O[C@@H]1CN(C)Cc1ccc(C(F)(F)F)cc1`, the AC50 [7] is reported as 3.86 µM (active).

In the case of `Cc1ccc2oc(=O)c3cc(C(=O)NCCCN4CCN(C)CC4)sc3c2c1`, the AC50 [9] is reported as 34 µM (active).

For `O=C(O)c1ccc(N/N=C/c2ccc(-c3ccccc3)cc2)cc1`, the AC50 [11] was 3.09 µM (active) and the AC50 [17] was 10.9 µM (active).
